The values below come from US20220339187A1, “ANTIMICROBIAL PEPTIDE-SELENIUM NANOPARTICLES” (The University of Melbourne, priority 2019, published 2022).

Data set [1] concerns K. pneumoniae ATCC 13883. As to the kind of experiment: Adenosine triphosphate (ATP) test (BacTiter-Glo). The following applies: 1 h at 37° C. Type of data set: cell-based, Klebsiella pneumoniae. Here is the method: (§1) The bacterial strains methicillin-sensitive S. aureus ATCC 29213, E. faecalis ATCC 29212, E. coli ATCC 25922 and K. pneumoniae ATCC 13883 were cultured in MHB at 37° C. 50 μL of Se NPs, Se NP-ε-PL or pure ε-PL in PBS solution was added into each well of 96-well microplates. 50 μL MHB with 2.5×10^6 cells/mL bacteria was then added into each well. After 1h incubation at 37° C., the 96-well microplates were transferred to room temperature for a further 30 min incubation period. 100 μL of BacTiter-Glo™ reagent (Promega, Australia) was added into each well, then mixed on an orbital shaker and incubated for 5 min. The luminescence was recorded using a microplate reader (PerkinElmer 1420 Multilabel Counter VICTOR3).
(§2) A standard curve was generated by adopting the following steps. 10-fold serial dilutions of ATP from 1 μM to 10 pM in 100 μL MHB were prepared. 100 μL of BacTiter-Glo™ reagent was added into each well, then mixed on an orbital shaker and incubated for 1 min. The luminescence was recorded using a microplate reader (PerkinElmer 1420 Multilabel Counter VICTOR3).

The test system of data set [2] is Escherichia coli (E. coli) ATCC 25922. As to the kind of experiment: Bacterial growth inhibition test / MIC calculation. The class given is cell-based. The conditions noted are these: MHB, 37° C., growth curves, linear regression, mean ± s.d. An excerpt:
(§3) The bacterial strains methicillin-sensitive Staphylococcus aureus (S. aureus) ATCC 29213, methicillin-resistant Staphylococcus aureus (MRSA) ATCC 43300, Enterococcus faecalis (E. faecalis) ATCC 29212, Escherichia coli (E. coli) ATCC 25922, Acinetobacter baumannii (A. baumannii) 2208 ATCC19606, Pseudomonas aeruginosa (P. aeruginosa) strain PAO1-LAC ATCC 47085, Klebsiella pneumoniae (K. pneumoniae) ATCC 13883 and multidrug-resistant K. pneumoniae (MDR), were obtained from the culture collection of the Oral Health Cooperative Research Centre, The Melbourne Dental School, University of Melbourne, Australia. Bacteria were cultured in Mueller Hinton Broth (MHB) at 37° C. 50 μL of suspensions with the desired concentrations of Se NPs, Se NP-ε-PL or pure ε-PL in PBS solution was added to each well of 96-well microplates, then 50 μL MHB with 2.5×10^6 bacteria/mL were added into each well. The plate was put into an iEMS microplate reader (Pathtech Pty Ltd, Melbourne, Australia) at a temperature of 37° C. to monitor bacterial growth by measuring the absorbance at wavelength of 630 nm for 24 h. Background absorbance values due to the Se NP solutions were subtracted from the measured absorbance values.
(§4) The absorbance values from bacteria growth curves at the time when the stationary phase starts (tsps) were taken and calculated as a percentage of the untreated control (Z=OD5/OD6×100%, where OD5 represents absorbance at tsps of experimental groups and OD6 represents the absorbance at tsps of the negative control group; all absorbance values had the culture medium background values subtracted). Concentration-inhibition curves were plotted with the percentages of absorbance, and linear regression analysis was adopted to determine the MIC at which Z becomes zero.

For data set [3], the system named is Pseudomonas aeruginosa (P. aeruginosa) strain PAO1-LAC ATCC 47085. As to the kind of experiment: Bacterial growth inhibition test / MIC calculation. The conditions noted are these: MHB, 37° C., growth curves, linear regression, mean ± s.d. The class given is cell-based.
Text: as §3, §4

For data set [4], the system named is Acinetobacter baumannii (A. baumannii) 2208 ATCC19606. As to the kind of experiment: Bacterial growth inhibition test / MIC calculation. The conditions noted are these: MHB, 37° C., growth curves, linear regression, mean ± s.d. The class given is cell-based.
Text: as §3, §4

Data set [5] concerns methicillin-resistant Staphylococcus aureus (MRSA) ATCC 43300. As to the kind of experiment: Bacterial growth inhibition test / MIC calculation. Type of data set: cell-based. The conditions noted are these: MHB, 37° C., growth curves, linear regression, mean ± s.d.
Text: as §3, §4

The subject of data set [6] is Klebsiella pneumoniae (K. pneumoniae) ATCC 13883. Kind of data set: Bacterial growth inhibition test / MIC calculation. Type of data set: cell-based. The following applies: MHB, 37° C., growth curves, linear regression, mean ± s.d.
Text: as §3, §4

In data set [7] the test system is methicillin-sensitive Staphylococcus aureus (S. aureus) ATCC 29213. Kind of data set: Bacterial growth inhibition test / MIC calculation. The class given is cell-based. The following applies: MHB, 37° C., growth curves, linear regression, mean ± s.d.
Text: as §3, §4

In data set [8] the test system is Enterococcus faecalis (E. faecalis) ATCC 29212. As to the kind of experiment: Bacterial growth inhibition test / MIC calculation. The conditions noted are these: MHB, 37° C., growth curves, linear regression, mean ± s.d. The class given is cell-based.
Text: as §3, §4

The test system of data set [9] is mice. The following applies: dosage of 5 g/kg; cited from earlier work.
Data set [10] has as its system methicillin-resistant Staphylococcus aureus (MRSA) ATCC 43300. Kind of data set: CFU measuring assay / MBC calculation. The conditions noted are these: 90 min at 37° C., linear regression, mean ± s.d. Type of data set: cell-based. Here is the method: (§5) For the CFU measuring assay, 50 μL of different concentrations of Se NPs, Se NP-ε-PL or pure ε-PL in PBS solution was added into each well of 96-well microplates, then 50 μL MHB with 2.5×10^6 cells/mL bacteria were added into each well. After incubating the microplate at 37° C. for 90 min, the bacterial solutions were diluted 10^−1, 10^−2, 10^−3 and 10^−4 times, then 10 μL of each dilution was transferred onto agar plates with MHB. The agar plates were incubated overnight, before the bacterial colony forming units were observed and measured.
(§6) Concentration-killing curves were plotted with CFUs/mL as a function of antibacterial agent concentration, and linear regression analysis was used to determine the lowest concentration (MBC) at which the CFU/mL becomes zero.

The test system of data set [11] is Klebsiella pneumoniae (K. pneumoniae) ATCC 13883. As to the kind of experiment: CFU measuring assay / MBC calculation. The class given is cell-based. The following applies: 90 min at 37° C., linear regression, mean ± s.d. As for the experimental part:
as §5, §6

The subject of data set [12] is E. coli ATCC 25922. Kind of data set: Adenosine triphosphate (ATP) test (BacTiter-Glo). The class given is cell-based, Escherichia coli. The conditions noted are these: 1 h at 37° C. As for the experimental part:
as §1, §2

In data set [13] the test system is Gram-negative cells (E. coli, A. baumannii and K. pneumoniae). As to the kind of experiment: Helium ion microscopy (HIM) of treated bacteria. Type of data set: cell-based. The following applies: 90 min incubation. Here is the method:
The morphologies of bacterial strains methicillin-sensitive S. aureus (MSSA) ATCC 29213, E. faecalis ATCC 29212, E. coli ATCC 25922, A. baumannii 2208 ATCC19606 and K. pneumoniae ATCC 13883 after treatment with Se NPs, Se NP-ε-PL or pure ε-PL were observed using Helium Ion Microscopy (HIM, Zeiss, Germany). The samples were prepared in the following steps. First, 100 μL of 125 μg/mL Se NPs, Se NP-ε-PL or pure ε-PL in PBS solution was added to each well of 96-well microplates, 100 μL pure PBS was used as untreated control. Afterwards, 100 μL MHB with 1.25×10^7/mL bacteria was added to each well. After 90 min incubation, 10 μL of both treated and untreated bacteria was dropped on clean silicon wafers, and they were then dried at 37° C. for 20 min. The dried samples were transferred to a 12-well plate, 2.5% glutaraldehyde was added to each well to fix the bacteria cells for 1 h, then gradient ethanol solution (30%, 50%, 60%, 70%, 80%, 90%, 95% and 100%) was used for dehydration. The prepared samples were dried in the fume hood overnight before use.

The test system of data set [14] is Gram-negative bacteria. Kind of data set: Colony forming unit assay (bactericidal effect). Type of data set: cell-based. Here is the method: as §5

For orientation: MIC means the least concentration at which growth counts as inhibited. In general, MBC refers to the smallest concentration meeting the test's criterion for killing.

With ε-poly-L-lysine [ε-PL], the ATP depletion result in data set [1] and in data set [12] was “higher ATP depletion effect than Se NPs” throughout. The MIC is 13.2 ± 0.5 µg/mL in data set [2]; 9.5 ± 3.6 µg/mL in [3]; 21.6 ± 7.0 µg/mL in [4]; 11.6 ± 2.0 µg/mL in data set [5]; 12.0 ± 0.6 µg/mL in data set [6]; 7.5 ± 1.0 µg/mL in [7]. Also, the MIC in data set [8] is 27.1 ± 2.2 µg/mL. Further, the “mortality, acute oral toxicity” value in data set [9] is reported as “no mortality”. Besides, the MBC in [10] is 149 ± 37 µg/mL; in data set [11], 12.9 ± 0.4 µg/mL. Also, in data set [13], the “cell morphology after treatment (HIM)” value is “membranes of E. coli, A. baumannii and K. pneumoniae cells were disrupted”. Further, in data set [14], the “bactericidal effect (CFU)” value was “high bactericidal efficacy”.
